# Results reported in the kinase profiling compilation of Christmann-Franck et al. (2016).
# Columns and labels:
# Assay in all cases: Caliper, Mobility shift assay off-chip
# ABL1 (human) = ABL1 (human) (UniProt P00519)
# [1] = system: ABL1 (human), P00519 [T315I]
# AURKC (human) = AURKC (human) (UniProt Q9UQB9)
# BRSK1 (human) = BRSK1 (human) (UniProt Q8TDC3)
# BRSK2 (human) = BRSK2 (human) (UniProt Q8IWQ3)
# BTK (human) = BTK (human) (UniProt Q06187)
# CSNK1A1 (human) = CSNK1A1 (human) (UniProt P48729)
# CSNK1D (human) = CSNK1D (human) (UniProt P48730)
# DCLK2 (human) = DCLK2 (human) (UniProt Q8N568)
# [2] = system: FGFR2 (human), P21802 [N549H]
# FGFR4 (human) = FGFR4 (human) (UniProt P22455)
# FLT3 (human) = FLT3 (human) (UniProt P36888)
# IGF1R (human) = IGF1R (human) (UniProt P08069)
# KDR (human) = KDR (human) (UniProt P35968)
# MAP4K4 (human) = MAP4K4 (human) (UniProt O95819)
# MAPK11 (human) = MAPK11 (human) (UniProt Q15759)
# MAPK13 (human) = MAPK13 (human) (UniProt O15264)
# MAPK14 (human) = MAPK14 (human) (UniProt Q16539)
# MAPKAPK5 (human) = MAPKAPK5 (human) (UniProt Q8IW41)
# MARK1 (human) = MARK1 (human) (UniProt Q9P0L2)
# MARK2 (human) = MARK2 (human) (UniProt Q7KZI7)
# MARK3 (human) = MARK3 (human) (UniProt P27448)
# PDGFRA (human) = PDGFRA (human) (UniProt P16234)
# PIM2 (human) = PIM2 (human) (UniProt Q9P1W9)
# PRKACA (human) = PRKACA (human) (UniProt P17612)
# PRKCH (human) = PRKCH (human) (UniProt P24723)
# PRKCQ (human) = PRKCQ (human) (UniProt Q04759)
# PRKCZ (human) = PRKCZ (human) (UniProt Q05513)
# RPS6KA4 KD1 KD2 (human) = RPS6KA4 KD1 KD2 (human) (UniProt O75676)
# RPS6KA5 KD1 KD2 (human) = RPS6KA5 KD1 KD2 (human) (UniProt O75582)
# RPS6KB1 (human) = RPS6KB1 (human) (UniProt P23443)
# SGK3 (human) = SGK3 (human) (UniProt Q96BR1)
# TSSK2 (human) = TSSK2 (human) (UniProt Q96PF2)
# Sequence of TSSK2 (human) (Q96PF2 whole entry, looked up): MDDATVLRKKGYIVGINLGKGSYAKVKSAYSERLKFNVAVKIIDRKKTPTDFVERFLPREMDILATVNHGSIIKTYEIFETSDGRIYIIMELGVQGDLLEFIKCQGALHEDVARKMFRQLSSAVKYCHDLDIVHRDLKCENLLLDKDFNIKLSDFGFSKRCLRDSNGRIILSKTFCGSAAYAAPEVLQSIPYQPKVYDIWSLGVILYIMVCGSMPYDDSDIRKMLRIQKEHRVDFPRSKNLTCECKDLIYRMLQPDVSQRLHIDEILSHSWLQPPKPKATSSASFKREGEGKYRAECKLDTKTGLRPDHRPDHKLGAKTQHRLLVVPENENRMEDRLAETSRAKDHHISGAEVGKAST
# Sequence of FGFR2 (human), P21802 [N549H] (P21802 whole entry N549H, looked up): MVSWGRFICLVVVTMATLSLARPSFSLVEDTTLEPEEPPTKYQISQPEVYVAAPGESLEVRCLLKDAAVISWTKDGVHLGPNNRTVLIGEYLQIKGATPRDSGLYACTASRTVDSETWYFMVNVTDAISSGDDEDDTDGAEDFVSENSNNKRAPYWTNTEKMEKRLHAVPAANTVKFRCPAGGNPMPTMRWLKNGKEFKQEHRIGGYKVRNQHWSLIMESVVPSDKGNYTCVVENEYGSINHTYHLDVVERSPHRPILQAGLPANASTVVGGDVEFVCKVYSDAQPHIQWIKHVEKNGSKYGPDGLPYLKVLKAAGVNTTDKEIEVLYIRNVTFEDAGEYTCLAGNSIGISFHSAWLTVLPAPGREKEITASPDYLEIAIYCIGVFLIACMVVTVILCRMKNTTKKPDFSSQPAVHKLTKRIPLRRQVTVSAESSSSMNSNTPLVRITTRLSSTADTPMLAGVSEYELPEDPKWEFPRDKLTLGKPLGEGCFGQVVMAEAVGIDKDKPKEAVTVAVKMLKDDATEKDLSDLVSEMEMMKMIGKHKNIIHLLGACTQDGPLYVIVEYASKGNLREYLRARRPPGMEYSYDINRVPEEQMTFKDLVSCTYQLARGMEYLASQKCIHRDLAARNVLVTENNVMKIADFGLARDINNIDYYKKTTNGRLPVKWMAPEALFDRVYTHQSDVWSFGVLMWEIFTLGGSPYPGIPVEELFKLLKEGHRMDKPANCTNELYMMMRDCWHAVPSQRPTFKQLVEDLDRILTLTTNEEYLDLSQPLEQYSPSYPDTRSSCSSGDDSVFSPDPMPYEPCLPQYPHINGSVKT
# Sequence of BRSK2 (human) (Q8IWQ3 whole entry, looked up): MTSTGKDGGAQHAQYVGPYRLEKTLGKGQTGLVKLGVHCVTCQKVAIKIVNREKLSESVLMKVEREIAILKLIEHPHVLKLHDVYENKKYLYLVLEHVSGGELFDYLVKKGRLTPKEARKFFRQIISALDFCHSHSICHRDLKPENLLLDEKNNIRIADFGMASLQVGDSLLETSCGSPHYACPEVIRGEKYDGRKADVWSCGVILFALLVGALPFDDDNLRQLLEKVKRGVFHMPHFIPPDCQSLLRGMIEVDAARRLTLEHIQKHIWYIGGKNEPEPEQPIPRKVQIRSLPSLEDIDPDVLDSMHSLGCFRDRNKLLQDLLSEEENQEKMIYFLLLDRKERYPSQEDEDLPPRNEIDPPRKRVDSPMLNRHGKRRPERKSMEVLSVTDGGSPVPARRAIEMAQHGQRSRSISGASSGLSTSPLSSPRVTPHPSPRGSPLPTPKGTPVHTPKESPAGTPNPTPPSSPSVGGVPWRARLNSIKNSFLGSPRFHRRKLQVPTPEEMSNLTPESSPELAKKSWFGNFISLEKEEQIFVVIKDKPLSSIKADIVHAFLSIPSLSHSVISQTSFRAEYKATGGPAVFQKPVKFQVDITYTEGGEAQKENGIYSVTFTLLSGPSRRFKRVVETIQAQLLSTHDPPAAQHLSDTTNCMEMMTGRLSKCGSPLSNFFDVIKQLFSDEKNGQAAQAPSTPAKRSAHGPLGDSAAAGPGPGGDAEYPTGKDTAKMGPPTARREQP
# Sequence of PIM2 (human) (Q9P1W9 whole entry, looked up): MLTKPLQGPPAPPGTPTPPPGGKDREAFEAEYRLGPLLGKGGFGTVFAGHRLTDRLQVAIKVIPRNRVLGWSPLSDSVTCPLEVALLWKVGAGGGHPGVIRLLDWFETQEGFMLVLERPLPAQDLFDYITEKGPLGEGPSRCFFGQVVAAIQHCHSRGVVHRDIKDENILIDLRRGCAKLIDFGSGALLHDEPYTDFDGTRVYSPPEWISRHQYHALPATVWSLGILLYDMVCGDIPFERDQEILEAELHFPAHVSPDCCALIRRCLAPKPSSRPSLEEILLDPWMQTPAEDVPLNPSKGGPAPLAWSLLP
# Sequence of AURKC (human) (Q9UQB9 whole entry, looked up): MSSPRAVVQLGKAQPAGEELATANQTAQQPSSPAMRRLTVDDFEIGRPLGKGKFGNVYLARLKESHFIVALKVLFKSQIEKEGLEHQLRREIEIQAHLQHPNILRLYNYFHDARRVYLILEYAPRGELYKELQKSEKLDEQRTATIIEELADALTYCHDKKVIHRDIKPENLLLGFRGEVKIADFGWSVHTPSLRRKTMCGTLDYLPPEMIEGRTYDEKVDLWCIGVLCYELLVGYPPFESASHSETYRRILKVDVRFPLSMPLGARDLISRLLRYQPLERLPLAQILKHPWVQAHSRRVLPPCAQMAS
# Sequence of PRKCH (human) (P24723 whole entry, looked up): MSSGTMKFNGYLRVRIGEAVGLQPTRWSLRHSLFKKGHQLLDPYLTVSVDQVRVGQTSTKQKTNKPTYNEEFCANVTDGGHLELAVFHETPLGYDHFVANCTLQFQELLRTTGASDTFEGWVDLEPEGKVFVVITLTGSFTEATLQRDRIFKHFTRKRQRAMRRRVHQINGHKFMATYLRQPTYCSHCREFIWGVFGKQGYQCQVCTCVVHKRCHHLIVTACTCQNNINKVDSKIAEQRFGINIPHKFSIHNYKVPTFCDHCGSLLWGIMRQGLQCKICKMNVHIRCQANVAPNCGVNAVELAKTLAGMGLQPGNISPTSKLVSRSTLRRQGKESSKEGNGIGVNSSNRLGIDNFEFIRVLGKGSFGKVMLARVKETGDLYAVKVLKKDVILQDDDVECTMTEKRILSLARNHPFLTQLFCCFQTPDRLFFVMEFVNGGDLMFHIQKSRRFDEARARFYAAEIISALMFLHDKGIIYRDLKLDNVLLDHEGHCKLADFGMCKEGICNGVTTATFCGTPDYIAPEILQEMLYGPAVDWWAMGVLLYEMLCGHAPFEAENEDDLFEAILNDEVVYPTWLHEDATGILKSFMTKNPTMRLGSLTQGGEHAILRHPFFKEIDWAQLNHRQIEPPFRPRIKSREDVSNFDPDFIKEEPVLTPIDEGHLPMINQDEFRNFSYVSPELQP
# Sequence of MARK3 (human) (P27448 whole entry, looked up): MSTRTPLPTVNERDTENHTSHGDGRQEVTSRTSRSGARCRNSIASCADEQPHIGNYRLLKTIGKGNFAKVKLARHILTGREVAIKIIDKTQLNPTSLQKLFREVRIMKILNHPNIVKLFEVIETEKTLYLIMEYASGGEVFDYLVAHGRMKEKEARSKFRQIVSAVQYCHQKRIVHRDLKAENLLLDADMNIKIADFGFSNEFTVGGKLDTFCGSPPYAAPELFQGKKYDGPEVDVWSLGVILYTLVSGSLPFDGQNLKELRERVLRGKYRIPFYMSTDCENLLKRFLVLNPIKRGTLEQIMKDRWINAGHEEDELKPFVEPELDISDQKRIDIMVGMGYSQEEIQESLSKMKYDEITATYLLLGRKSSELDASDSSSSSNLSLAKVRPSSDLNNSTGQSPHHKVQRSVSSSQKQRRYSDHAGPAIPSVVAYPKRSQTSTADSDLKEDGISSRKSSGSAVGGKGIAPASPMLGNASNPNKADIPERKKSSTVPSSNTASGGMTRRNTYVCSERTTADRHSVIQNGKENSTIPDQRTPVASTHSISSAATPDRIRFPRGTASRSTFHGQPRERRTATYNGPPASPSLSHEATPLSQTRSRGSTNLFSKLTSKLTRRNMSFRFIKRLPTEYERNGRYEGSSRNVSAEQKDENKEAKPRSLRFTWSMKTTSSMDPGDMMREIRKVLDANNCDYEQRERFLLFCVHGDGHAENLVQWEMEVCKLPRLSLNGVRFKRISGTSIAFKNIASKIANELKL
# Sequence of MAPK11 (human) (Q15759 whole entry, looked up): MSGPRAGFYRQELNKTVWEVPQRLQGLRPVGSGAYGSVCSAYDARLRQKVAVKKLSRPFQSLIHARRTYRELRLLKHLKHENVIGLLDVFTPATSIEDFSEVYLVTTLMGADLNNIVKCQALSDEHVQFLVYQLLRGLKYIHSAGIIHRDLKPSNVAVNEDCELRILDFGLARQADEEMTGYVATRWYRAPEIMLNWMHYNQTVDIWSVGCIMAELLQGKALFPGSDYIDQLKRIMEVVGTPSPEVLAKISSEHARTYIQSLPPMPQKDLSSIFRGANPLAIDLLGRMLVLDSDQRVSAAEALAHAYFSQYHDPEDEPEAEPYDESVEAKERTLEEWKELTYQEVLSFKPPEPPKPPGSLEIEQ
# Sequence of MAPK14 (human) (Q16539 whole entry, looked up): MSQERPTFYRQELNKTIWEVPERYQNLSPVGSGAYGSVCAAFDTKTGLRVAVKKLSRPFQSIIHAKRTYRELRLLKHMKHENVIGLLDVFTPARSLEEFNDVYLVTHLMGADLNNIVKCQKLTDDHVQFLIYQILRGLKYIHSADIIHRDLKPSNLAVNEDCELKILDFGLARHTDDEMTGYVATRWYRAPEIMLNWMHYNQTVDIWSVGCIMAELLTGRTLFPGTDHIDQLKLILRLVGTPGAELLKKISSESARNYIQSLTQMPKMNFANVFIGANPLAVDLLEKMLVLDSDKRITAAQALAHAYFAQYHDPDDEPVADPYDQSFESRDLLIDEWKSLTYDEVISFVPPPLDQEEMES
smiles,measurement,setting,value
O=c1c2cc(CS(=O)(=O)NCc3ccccn3)ccc2ccc2ncc(C3CCNCC3)cc12,inhibition,ABL1 (human); compound 0.01 µM,-1.8%
same,inhibition,ABL1 (human); compound 0.1 µM,5.5%
same,inhibition,[1]; compound 0.01 µM,19.6%
same,inhibition,[1]; compound 0.1 µM,-2.4%
same,inhibition,AURKC (human); compound 0.01 µM,-15.8%
same,inhibition,AURKC (human); compound 0.1 µM,5.6%
same,inhibition,BRSK1 (human); compound 0.01 µM,9.9%
same,inhibition,BRSK1 (human); compound 0.1 µM,-7.5%
same,inhibition,BRSK2 (human); compound 0.01 µM,-1.9%
same,inhibition,BRSK2 (human); compound 0.1 µM,4.8%
same,inhibition,BTK (human); compound 0.01 µM,5.6%
same,inhibition,BTK (human); compound 0.1 µM,5.1%
same,inhibition,CSNK1A1 (human); compound 0.01 µM,1.4%
same,inhibition,CSNK1A1 (human); compound 0.1 µM,-0.5%
same,inhibition,CSNK1D (human); compound 0.01 µM,2%
same,inhibition,CSNK1D (human); compound 0.1 µM,-2.8%
same,inhibition,DCLK2 (human); compound 0.01 µM,8.7%
same,inhibition,DCLK2 (human); compound 0.1 µM,-0.7%
same,inhibition,[2]; compound 0.01 µM,-4.6%
same,inhibition,[2]; compound 0.1 µM,3.3%
same,inhibition,FGFR4 (human); compound 0.01 µM,12.6%
same,inhibition,FGFR4 (human); compound 0.1 µM,-18.4%
same,inhibition,FLT3 (human); compound 0.01 µM,0.2%
same,inhibition,FLT3 (human); compound 0.1 µM,5%
same,inhibition,IGF1R (human); compound 0.01 µM,5%
same,inhibition,IGF1R (human); compound 0.1 µM,-2.7%
same,inhibition,KDR (human); compound 0.01 µM,-4.1%
same,inhibition,KDR (human); compound 0.1 µM,4.1%
same,inhibition,MAP4K4 (human); compound 0.01 µM,-8.5%
same,inhibition,MAP4K4 (human); compound 0.1 µM,-10.7%
same,inhibition,MAPK11 (human); compound 0.01 µM,-1.5%
same,inhibition,MAPK11 (human); compound 0.1 µM,0.7%
same,inhibition,MAPK13 (human); compound 0.01 µM,5.5%
same,inhibition,MAPK13 (human); compound 0.1 µM,-5.7%
same,inhibition,MAPK14 (human); compound 0.01 µM,-1.2%
same,inhibition,MAPK14 (human); compound 0.1 µM,-6.5%
same,inhibition,MAPKAPK5 (human); compound 0.01 µM,-4.7%
same,inhibition,MAPKAPK5 (human); compound 0.1 µM,1.6%
same,inhibition,MARK1 (human); compound 0.01 µM,-0.1%
same,inhibition,MARK1 (human); compound 0.1 µM,-2.9%
same,inhibition,MARK2 (human); compound 0.01 µM,-7%
same,inhibition,MARK2 (human); compound 0.1 µM,-10%
same,inhibition,MARK3 (human); compound 0.01 µM,-1.6%
same,inhibition,MARK3 (human); compound 0.1 µM,-2.2%
same,inhibition,PDGFRA (human); compound 0.01 µM,-15.7%
same,inhibition,PDGFRA (human); compound 0.1 µM,4.1%
same,inhibition,PIM2 (human); compound 0.01 µM,4.3%
same,inhibition,PIM2 (human); compound 0.1 µM,2.9%
same,inhibition,PRKACA (human); compound 0.01 µM,3.2%
same,inhibition,PRKACA (human); compound 0.1 µM,0.4%
same,inhibition,PRKCH (human); compound 0.01 µM,-4.3%
same,inhibition,PRKCH (human); compound 0.1 µM,-6.9%
same,inhibition,PRKCQ (human); compound 0.01 µM,3.4%
same,inhibition,PRKCQ (human); compound 0.1 µM,-3.8%
same,inhibition,PRKCZ (human); compound 0.01 µM,-0.3%
same,inhibition,PRKCZ (human); compound 0.1 µM,4.6%
same,inhibition,RPS6KA4 KD1 KD2 (human); compound 0.01 µM,9.3%
same,inhibition,RPS6KA4 KD1 KD2 (human); compound 0.1 µM,-5.3%
same,inhibition,RPS6KA5 KD1 KD2 (human); compound 0.01 µM,-5.1%
same,inhibition,RPS6KA5 KD1 KD2 (human); compound 0.1 µM,-2.9%
same,inhibition,RPS6KB1 (human); compound 0.01 µM,6.8%
same,inhibition,RPS6KB1 (human); compound 0.1 µM,-1.3%
same,inhibition,SGK3 (human); compound 0.01 µM,-13.2%
same,inhibition,SGK3 (human); compound 0.1 µM,-7.3%
same,inhibition,TSSK2 (human); compound 0.01 µM,55.4%
same,inhibition,TSSK2 (human); compound 0.1 µM,-6.2%
